According to ChEMBL document CHEMBL1122021, “Angiotensin-converting enzyme inhibitors: importance of the amide carbonyl of mercaptoacyl amino acids for hydrogen bonding to the enzyme” (J Med Chem, 1982):

target: T1, Angiotensin-converting enzyme (Oryctolagus cuniculus, UniProt P12822); assay: In vitro inhibitory activity against Angiotensin I converting enzyme in rabbit lung, using hippuryl-histidyl-leucine as substrate; conditions: not given
T1 sequence (P12822 whole entry): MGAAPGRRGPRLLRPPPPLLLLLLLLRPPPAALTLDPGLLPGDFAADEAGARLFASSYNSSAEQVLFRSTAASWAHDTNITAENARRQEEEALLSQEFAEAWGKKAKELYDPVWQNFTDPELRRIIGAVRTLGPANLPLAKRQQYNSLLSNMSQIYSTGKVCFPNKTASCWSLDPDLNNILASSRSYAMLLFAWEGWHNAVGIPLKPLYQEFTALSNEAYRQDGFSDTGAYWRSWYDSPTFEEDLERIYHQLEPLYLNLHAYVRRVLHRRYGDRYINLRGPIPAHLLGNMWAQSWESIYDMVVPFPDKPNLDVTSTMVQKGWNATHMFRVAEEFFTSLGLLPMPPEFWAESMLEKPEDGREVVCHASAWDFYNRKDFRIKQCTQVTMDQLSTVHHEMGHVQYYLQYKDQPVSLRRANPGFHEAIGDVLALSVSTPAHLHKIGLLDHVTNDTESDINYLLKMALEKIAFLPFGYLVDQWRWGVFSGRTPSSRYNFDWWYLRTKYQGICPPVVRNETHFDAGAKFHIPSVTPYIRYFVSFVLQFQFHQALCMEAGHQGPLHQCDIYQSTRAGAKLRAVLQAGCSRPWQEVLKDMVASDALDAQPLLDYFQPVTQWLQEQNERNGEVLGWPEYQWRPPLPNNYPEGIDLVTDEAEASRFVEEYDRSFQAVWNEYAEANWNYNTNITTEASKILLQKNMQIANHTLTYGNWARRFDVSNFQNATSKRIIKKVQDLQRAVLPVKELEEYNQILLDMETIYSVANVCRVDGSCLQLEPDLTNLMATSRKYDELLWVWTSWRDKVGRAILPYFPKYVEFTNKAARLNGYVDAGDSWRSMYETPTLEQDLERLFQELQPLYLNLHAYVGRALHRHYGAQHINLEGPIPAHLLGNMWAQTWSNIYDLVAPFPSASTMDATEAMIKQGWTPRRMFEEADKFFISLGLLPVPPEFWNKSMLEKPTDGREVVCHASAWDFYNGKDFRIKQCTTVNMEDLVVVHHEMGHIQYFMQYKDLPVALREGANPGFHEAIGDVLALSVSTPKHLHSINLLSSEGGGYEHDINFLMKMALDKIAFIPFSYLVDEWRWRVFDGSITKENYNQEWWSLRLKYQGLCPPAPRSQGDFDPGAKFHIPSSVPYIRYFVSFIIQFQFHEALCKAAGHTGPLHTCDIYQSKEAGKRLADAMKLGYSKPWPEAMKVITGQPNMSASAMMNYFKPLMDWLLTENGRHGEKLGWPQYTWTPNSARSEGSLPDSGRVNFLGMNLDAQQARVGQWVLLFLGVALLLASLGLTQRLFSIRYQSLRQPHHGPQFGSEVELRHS

Q: `C[C@H](CS)C(=O)N1C(=O)CC[C@H]1C(=O)O` was tested. Which IC50 did it give?
A: Its IC50 is 0.009 µM.

Q: Which IC50 does the source give for `CN(C(=O)CCS)[C@@H](Cc1ccccc1)C(=O)O` here?
A: Its IC50 is 31 µM.

same assay, conditions: read-out: I50

Q: `O=C(O)[C@@H]1CCCN1C(=O)CCS` was tested. Which IC50 did it give?
A: The IC50 was 0.25 µM.

Q: How did the IC50 turn out when `O=C(O)CN1CCCC(CS)C1=O` (stereo unspecified) was run?
A: The IC50 was 10 µM.

Q: For `O=C(O)[C@@H]1CCCN1CCCS`, which IC50 is on record?
A: The IC50 was 240 µM.

Q: With `O=C(CCS)N[C@@H](Cc1ccccc1)C(=O)O` as the compound, how does the IC50 read?
A: Its IC50 is 0.85 µM.

Q: How did the IC50 turn out when `O=C(O)[C@@H]1CC[C@H]1C(=O)CCS` was run?
A: The IC50 was 37 µM.

Q: Which IC50 does the source give for `O=C(O)CC(=O)NCCS` here?
A: Its IC50 is 580 µM.

Q: For `C[C@@H](CS)C(=O)[C@@H]1CCCC[C@H]1C(=O)O`, which IC50 is on record?
A: Its IC50 is 3.7 µM.

Q: Which IC50 does the source give for `O=C(O)[C@@H]1CCCC[C@H]1C(=O)CCS` here?
A: The IC50 was 1.7 µM.

Q: For `O=C(O)C/C=C/CCS`, which IC50 is on record?
A: The IC50 was 720 µM.

Q: With `O=C(O)[C@@H]1CCC(=O)N1CCCS` as the compound, how does the IC50 read?
A: Its IC50 is 640 µM.

Q: For `O=C(O)CNC(=O)CCS`, which IC50 is on record?
A: The IC50 was 2.8 µM.

Q: `CN(CC(=O)O)C(=O)CCS` was tested. Which IC50 did it give?
A: The IC50 was 3 µM.

Q: For `O=C(O)CCCCCS`, which IC50 is on record?
A: Its IC50 is 1100 µM.

Q: For `O=C(O)CCC(=O)CCS`, which IC50 is on record?
A: Its IC50 is 11 µM.

Q: With `O=C(CCS)O[C@@H](Cc1ccccc1)C(=O)O` as the compound, how does the IC50 read?
A: The IC50 was 0.7 µM.

Q: `O=C(O)[C@@H]1CCCN1S(=O)(=O)CCS` was tested. Which IC50 did it give?
A: The IC50 was 11 µM.

Q: `O=C(O)[C@@H]1CCC[C@H]1C(=O)CCS` was tested. Which IC50 did it give?
A: Its IC50 is 2.4 µM.

Q: For `O=C(CCS)[C@H]1CCCC[C@H]1C(=O)O`, which IC50 is on record?
A: Its IC50 is 1.4 µM.

Q: How did the IC50 turn out when `C[C@H](CS)C(=O)N1CCCC[C@H]1C(=O)O` was run?
A: Its IC50 is 0.13 µM.

Q: How did the IC50 turn out when `O=C(O)CCC(O)CCS` (stereo unspecified) was run?
A: Its IC50 is 1200 µM.

Q: Which IC50 does the source give for `O=C(O)[C@@H]1CCN1C(=O)CCS` here?
A: The IC50 was 1.7 µM.

Q: With `O=C(O)[C@@H]1CCCCN1C(=O)CCS` as the compound, how does the IC50 read?
A: The IC50 was 0.46 µM.

Q: Which IC50 does the source give for `O=C(CCS)[C@H]1CC[C@H]1C(=O)O` here?
A: The IC50 was 34 µM.

Q: With `C[C@H](CS)C(=O)[C@@H]1CCCC[C@H]1C(=O)O` as the compound, how does the IC50 read?
A: The IC50 was 0.74 µM.
